No end group written: not given here.
Legend:
[1] = test system: T. brucei MERS1 (residues 37–395); experiment: Fluorescence polarization (FP) RNA/DNA binding to MERS1; design: species or system Trypanosoma brucei; details: 25 mM Tris HCl pH 7.5, 5% (v/v) glycerol, 50 mM NaCl; for Binding to MERS1, result in words: 25°C, 1 nM fluoresceinated RNA or DNA
From the text: We next used FP binding studies to assess RNA binding by purified MERS1. […] We next probed the importance of specific nucleotides in the RNA binding site by performing FP studies on mutant forms of the RNA site.
For structural studies, the nucleotides encoding residues 37–395 of MERS1 were cloned into pET15b between the BamHI and NdeI restriction sites. E. coli C41(DE3) cells were transformed with the expression plasmid and protein expression was induced by addition of isopropyl β-D-1-thiogalactopyranoside (IPTG) to a final concentration of 0.5 mM for 4 h at 37°C when the cells had reached an A600 of 0.4–0.6. The cells were reconstituted in 25 mM Tris HCl pH 7.5, 300 mM NaCl, 5% glycerol, 0.5 mM β-mercaptoethanol and lysed with a microfluidizer. The expressed MERS1 protein was found in the soluble fraction and was purified using nickel-nitrilotriacetic acid (Ni-NTA) column chromatography. The protein was further purified by Superdex 75 size exclusion column (SEC) chromatography. MERS1 mutants were made using the Quikchange mutagenesis protocol and expressed and purified as per the WT protein.
FP experiments were performed using a PanVera Beacon 2000 FP system at 25°C ([Lundblad et al. 1996]). For the experiments, purified proteins were titrated into 0.990 mL buffer composed of 25 mM Tris HCl pH 7.5, 5% (v/v) glycerol and 50 mM NaCl and containing 1 nM (final concentration) fluoresceintly labeled RNA substrate, 5′-GAGAGGGGGUU-3′, or DNA, 5′-GTGAGTACTCAC-3′. Data were fit using KaleidaGraph. Each binding curve is a representative curve from two to three technical replicates. Mutant RNA sites tested were 5′-AAGAGGGGGUU-3′ (Supplemental Fig. S2), 5′-GGGAGGGGGUU-3′, 5′-GAAAGGGGGUU-3′, 5′-GAGGGGGGGUU-3′, 5′-GAGAAGGGGUU-3′, 5-GAGAGAGGGUU-3′, 5′-GAGAGGAGGUU-3′ and 5′-GAGAGGGAGUU-3′.

[2] = test system: T. brucei MERS1 (residues 37–395); experiment: FP peptide binding to MERS1; design: species or system Trypanosoma brucei; details: 25 mM Tris HCl pH 7.5, 5% (v/v) glycerol, 150 mM NaCl, 1 nM fluoresceinated peptide (Fig. 4B)
From the text: We considered that the bound helix provided from crystal packing might mimic a portion of MERS2 or MERS3 that interacts with MERS1. Thus, using the MERS1-peptide contacts we derived a consensus MERS1-peptide interacting motif, (M/L)XXALXXEL and probed the MERS2 and MERS3 sequences for similar motifs. While no homology was found between the sequence and that of MERS3, one strong match for the motif was located within the central PPR motif region of MERS2 (residues 394–402). This region is predicted to be helical and contain a PPR motif in MERS2. Attempts to purify MERS2 or a MERS2 truncation containing this PPR motif for binding analyses, however, were unsuccessful. Thus, we obtained a fluoresceinated peptide encompassing this MERS2 region, F-[…] (where underlined residues correspond to the peptide consensus residues) and utilized this peptide in FP binding studies. […] However, to test whether helical residues observed in the crystal to make contact to MERS1 are involved in binding, we obtained a fluoresceintated peptide in which the first leucine and the glutamic acid in the helix were substituted to prolines (F-[…]).
For structural studies, the nucleotides encoding residues 37–395 of MERS1 were cloned into pET15b between the BamHI and NdeI restriction sites. […]

[3] = target: T1, MERS1 (Trypanosoma brucei brucei TREU927, UniProt B6SBM0 37-395); experiment: fluorescence polarization; FP: 25 mM Tris HCl pH 7.5, 50 mM NaCl, 5% (v/v) glycerol, 1 nM labeled RNA or DNA, 25 C; details: protein: recombinant, tags: N-terminal His tag (pET15b, linker LVPRGSM); for Kd: single-stranded
T1 sequence: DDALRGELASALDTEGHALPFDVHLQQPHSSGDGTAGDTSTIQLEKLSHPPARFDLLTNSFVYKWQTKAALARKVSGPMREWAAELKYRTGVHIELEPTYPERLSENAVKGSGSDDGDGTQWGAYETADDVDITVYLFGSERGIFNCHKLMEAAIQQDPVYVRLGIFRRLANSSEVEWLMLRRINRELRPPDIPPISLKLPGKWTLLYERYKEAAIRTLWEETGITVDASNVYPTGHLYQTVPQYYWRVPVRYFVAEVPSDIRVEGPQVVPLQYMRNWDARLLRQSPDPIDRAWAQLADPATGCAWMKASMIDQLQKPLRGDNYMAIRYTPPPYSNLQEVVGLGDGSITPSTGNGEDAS

[4] = target: T2, T. brucei MERS1(37–395), his-tagged (Trypanosoma brucei brucei TREU927, UniProt B6SBM0 37-395); experiment: fluorescence polarisation; purified MERS1 titrated into 1 nM fluoresceinated peptide; 25 mM Tris HCl pH 7.5, 5% (v/v) glycerol, 150 mM NaCl; details: both partners purified
T2 construct: MERS1, Trypanosoma brucei, 395 residues; A selenomethionine-substituted form was used for phasing of the GTP crystal; also called mitochondrial edited mRNA stability factor 1; WT MERS1; source: E. coli C41(DE3), pET15b, purified (Ni-NTA, Superdex 75 SEC); not shown: His tag, N-terminal, kept
T2 sequence: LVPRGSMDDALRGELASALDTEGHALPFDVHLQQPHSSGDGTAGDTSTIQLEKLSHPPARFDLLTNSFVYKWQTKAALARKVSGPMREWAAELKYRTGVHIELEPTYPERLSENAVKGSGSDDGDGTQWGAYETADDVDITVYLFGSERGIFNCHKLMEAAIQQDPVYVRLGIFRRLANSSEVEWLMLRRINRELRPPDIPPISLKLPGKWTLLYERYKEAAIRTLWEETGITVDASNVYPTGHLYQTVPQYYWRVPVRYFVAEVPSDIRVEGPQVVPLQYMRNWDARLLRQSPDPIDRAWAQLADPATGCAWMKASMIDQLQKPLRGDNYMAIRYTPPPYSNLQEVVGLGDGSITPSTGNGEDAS

[5] = target: T1, MERS1; experiment: fluorescence polarization; Results text prints the 12-mer; Methods and Fig. 5 print this 11-mer; FP: 25 mM Tris HCl pH 7.5, 50 mM NaCl, 5% (v/v) glycerol, 1 nM labeled RNA or DNA, 25 C; details: protein: recombinant; tags: N-terminal His tag (pET15b, linker LVPRGSM); single-stranded
[6] = target: T1, MERS1; experiment: X-ray crystallography; 2.60 A; four nucleotides resolved per subunit; FP: 25 mM Tris HCl pH 7.5, 50 mM NaCl, 5% (v/v) glycerol, 1 nM labeled RNA or DNA, 25 C; details: protein: recombinant; tags: N-terminal His tag (pET15b, linker LVPRGSM); single-stranded

Q: How did the “Binding to MERS1, result in words” value [1] turn out when “5′-GAGAGGAGGUU-3′ (RNA, backbone not given here)” was run?
A: The value was “did not bind saturably”.

Q: With “5′-GTGAGTACTCAC-3′: DNA site used as comparison in FP binding (DNA, backbone and methylation of C not given here; further chemistry not fully specified) [reference compound]” as the molecule, how does the “Binding to MERS1, result in words” value [1] read?
A: Its value is “essentially no binding”.

Q: And the “Binding to MERS1, result in words” value ([1]; listed as DNA)?
A: The value was “no binding”.

Q: Which “Binding to MERS1, result in words” value [1] does the source give for “5′-GAGAGAGGGUU-3′ (RNA, backbone not given here)” here?
A: The value was “did not bind saturably”.

Q: How did the “Binding to MERS1, result in words” value [1] turn out when “5′-GAGAGGGGGUU-3′: fluoresceintly labeled RNA substrate (RNA, backbone not given here; fluorescein label)” was run?
A: Its value is “binds MERS1 with high affinity”.

Q: “F-SVSKQAVCLMERHLRRVPGARRNELKVAPSKPLKER [peptide in which the first leucine and the glutamic acid in the helix were substituted to prolines]” was tested. Which “Peptide binding to MERS1, result in words” value [2] did it give?
A: Its value is “only weak binding”.

Q: Which “Peptide binding to MERS1, result in words” value [2] does the source give for “F-MSNNALDRLINKQKPKVPPRNDVVSESVSN [another fluoresceinated peptide that lacked the consensus residues, reference compound]” here?
A: The value was “failed to interact”.

Q: Which Kd ([1]; PanVera Beacon 2000, 25°C, 1 nM fluoresceinated RNA, MERS1 titrated, ± standard error, representative of at least three technical replicates (Fig. 5B)) does the source give for “5′-GAGAGGGGGGUU-3′: RNA binding site; also used for the MERS1–RNA crystal structure (RNA, backbone not given here)” here?
A: The Kd was 40 ± 0.9 nM.

Q: Which “Binding to MERS1, result in words” value [1] does the source give for “5′-GAGAGGGAGUU-3′ (RNA, backbone not given here)” here?
A: The value was “did not bind saturably”.

B1: DNA control (dsDNA)
DNA 1: GTGAGTACTCAC
DNA 2: GTGAGTACTCAC
Q: Does B1 bind ([3]; label: fluorescein, self-complementary 12-mer, blunt if duplex)?
A: Result: no binding

B2: fluoresceinated MERS2 peptide F-SVSKQAVCLMERHLRRVPGARRNELKVALSKELKER (peptide)
peptide: fluorescein-SVSKQAVCLMERHLRRVPGARRNELKVALSKELKER
notes: MERS2, T. brucei, 946 residue pentatricopeptide repeat protein; limits worked out from that motif; also called MER2 peptide
Q: B2 was tested. Which Kd [4] did it give?
A: The Kd was 2500 nM.

Q: Which Kd [5] does the source give for GAGAGGGGGUU (ssRNA) [WT RNA site (11-mer, FP)] here?
A: The Kd was 40 ± 0.9 nM.

Q: Does GAGAGGGGGGUU (ssRNA) [RNA 12-mer (crystal)] bind [6]?
A: Result: binds

Q: Which Kd ([3]; label: fluorescein) does the source give for GAGAAGGGGUU (ssRNA) [RNA G5A] here?
A: The Kd was 43 ± 5 nM.

Q: For AAGAGGGGGUU (ssRNA) [RNA G1A], which Kd ([3]; label: 5' fluorescein) is on record?
A: The Kd was 39 ± 4 nM.

Q: With GAAAGGGGGUU (ssRNA) [RNA G3A] as the molecule, how does the Kd ([3]; label: fluorescein) read?
A: Its Kd is 78 ± 4 nM.

Q: GAGGGGGGGUU (ssRNA) [RNA A4G] was tested. Which Kd ([3]; label: fluorescein) did it give?
A: The Kd was 47 ± 5 nM.

Q: Which Kd ([3]; label: fluorescein) does the source give for GGGAGGGGGUU (ssRNA) [RNA A2G] here?
A: Its Kd is 48 ± 0.9 nM.

— publication PMC6913127, “Structures of MERS1, the 5′ processing enzyme of mitochondrial mRNAs in Trypanosoma brucei” (RNA, 2020)
